Measurements: ChEMBL document CHEMBL1139332, “Selective activity against Mycobacteriumtuberculosis of new quinoxaline 1,4-di-N-oxides” (Bioorg Med Chem, 2009)
Converted amounts (≈) assume the structure as drawn.

Columns and labels:
[1] = tested on: Mycobacterium tuberculosis; test: Antimicrobial activity against Mycobacterium tuberculosis H37Rv at 6.25 ug/ml by microplate alamar blue assay; type: functional
[2] = tested on: Mycobacterium tuberculosis; test: Antimicrobial activity against Mycobacterium tuberculosis H37Rv by microplate alamar blue assay; type: functional
Vero = test: Cytotoxicity against african green monkey Vero cells after 72 hrs by MTT assay; type: cell-based, Chlorocebus sabaeus
[3] = Selectivity index, ratio of IC50 for african green monkey Vero cells to MIC for Mycobacterium tuberculosis H37Rv; type: functional
[4] = Chlorocebus sabaeus, Vero, 72 h, read-out: IC50

| Compound | inhibition at 6.25 µg/mL [1] | MIC [2] | IC50 (Vero; [4]) | Ratio [3] | IC50 (Vero; vero) |
| --- | --- | --- | --- | --- | --- |
| COc1ccc(-c2c(C#N)[n+]([O-])c3cc(C)c(C)cc3[n+]2[O-])cc1 | 90% | < 0.2 µg/mL |  |  |  |
| COc1ccc(-c2c(C#N)[n+]([O-])c3cc(C)ccc3[n+]2[O-])cc1 | 90% | < 0.2 µg/mL |  |  |  |
| Cc1cc2c(cc1C)[n+]([O-])c(-c1ccccc1)c(C#N)[n+]2[O-] | 90% | 0.39 µg/mL (≈ 1.34 µM) | 3.9 µg/mL (≈ 13.4 µM) | 10 |  |
| N#Cc1c(-c2ccccc2)[n+]([O-])c2cc(Cl)c(Cl)cc2[n+]1[O-] | 90% | 0.2 µg/mL (≈ 0.602 µM) |  |  | ND(Insoluble) |
| CCOC(=O)c1c(C)[n+]([O-])c2ccc(Cl)cc2[n+]1[O-] |  | 0.2 µg/mL (≈ 0.708 µM) |  | >50 |  |
| COC(=O)c1ccc(-c2c(C#N)[n+]([O-])c3ccccc3[n+]2[O-])cc1 | 90% | 0.78 µg/mL (≈ 2.43 µM) | 4.8 µg/mL (≈ 14.9 µM) | 6.2 |  |
| Cc1ccc(-c2c(C#N)[n+]([O-])c3cc(Cl)c(Cl)cc3[n+]2[O-])cc1 | 90% | 3.13 µg/mL (≈ 9.04 µM) | 0.72 µg/mL (≈ 2.08 µM) | 0.23 |  |
| Cc1cc2c(cc1C)[n+]([O-])c(-c1ccc(F)cc1)c(C#N)[n+]2[O-] | 90% | 1.69 µg/mL (≈ 5.46 µM) | 100 µg/mL (≈ 323 µM) | >59.07 |  |
| N#Cc1c(-c2ccc(OC(F)(F)F)cc2)[n+]([O-])c2ccc(C(F)(F)F)cc2[n+]1[O-] | 90% | < 0.2 µg/mL |  |  |  |
| COC(=O)c1ccc(-c2c(C#N)[n+]([O-])c3cc(C(F)(F)F)ccc3[n+]2[O-])cc1 | 90% | < 0.2 µg/mL | 1.93 µg/mL (≈ 4.96 µM) | >9.64 |  |
| CCOC(=O)c1c(-c2ccccc2)[n+]([O-])c2cc(Cl)c(Cl)cc2[n+]1[O-] | 90% | < 0.2 µg/mL |  |  |  |
| N#Cc1c(-c2ccccc2)[n+]([O-])c2ccccc2[n+]1[O-] | 90% | 0.2 µg/mL (≈ 0.76 µM) | 1.9 µg/mL (≈ 7.22 µM) | 9.5 |  |
| Cc1ccc2c(c1)[n+]([O-])c(C#N)c(-c1ccccc1)[n+]2[O-] | 90% | 0.39 µg/mL (≈ 1.41 µM) | 3.6 µg/mL (≈ 13 µM) | 9.2 |  |
| COc1ccc2c(c1)[n+]([O-])c(C#N)c(-c1ccccc1)[n+]2[O-] | 90% | 3.13 µg/mL (≈ 10.7 µM) |  |  | ND(Insoluble) |
| N#Cc1c(-c2ccc(Cl)cc2)[n+]([O-])c2cc(Cl)c(Cl)cc2[n+]1[O-] | 90% | < 0.2 µg/mL |  |  | ND(Insoluble) |
| Cc1ccc(-c2c(C#N)[n+]([O-])c3cc(C)c(C)cc3[n+]2[O-])cc1 | 90% | 1.56 µg/mL (≈ 5.11 µM) | > 62.5 µg/mL | >40 |  |
| Cc1cc2c(cc1C)[n+]([O-])c(N1CCN(c3ccc([N+](=O)[O-])cc3)CC1)c(C#N)[n+]2[O-] |  | < 0.2 µg/mL |  | >125 |  |
| Cc1c(C(=O)OCc2ccccc2)[n+]([O-])c2cc(Cl)ccc2[n+]1[O-] |  | 0.1 µg/mL (≈ 0.29 µM) |  | 470 |  |
| COC(=O)c1ccc(-c2c(C#N)[n+]([O-])c3cc(Cl)c(Cl)cc3[n+]2[O-])cc1 |  | > 6.25 µg/mL |  |  |  |
| CC(=O)c1c(C)[n+]([O-])c2ccc(Cl)cc2[n+]1[O-] |  | 0.78 µg/mL (≈ 3.09 µM) |  | 20 |  |

| Compound | inhibition at 6.25 µg/mL [1] | MIC [2] | IC50 (Vero; [4]) | Ratio [3] | IC50 (Vero; vero) |
| --- | --- | --- | --- | --- | --- |
| N#Cc1c(-c2ccc(F)cc2)[n+]([O-])c2ccc(Cl)cc2[n+]1[O-] | 90% | < 0.2 µg/mL | 51.7 µg/mL (≈ 164 µM) | >258.67 |  |
| Cc1ccc2c(c1)[n+]([O-])c(C#N)c(-c1ccc(F)cc1)[n+]2[O-] | 90% | < 0.2 µg/mL | > 100 µg/mL | >500 |  |
| Cc1ccc2c(c1)[n+]([O-])c(C#N)c(-c1ccc(Cl)cc1)[n+]2[O-] | 90% | 0.39 µg/mL (≈ 1.25 µM) | 0.45 µg/mL (≈ 1.44 µM) | 1.15 |  |
| Cc1ccc(-c2c(C#N)[n+]([O-])c3ccccc3[n+]2[O-])cc1 | 90% | 0.39 µg/mL (≈ 1.41 µM) | 0.68 µg/mL (≈ 2.45 µM) | 1.7 |  |
| Cc1ccc(-c2c(C#N)[n+]([O-])c3cc(Cl)ccc3[n+]2[O-])cc1 | 90% | 6.25 µg/mL (≈ 20 µM) | 0.63 µg/mL (≈ 2.02 µM) | 0.1 |  |
| N#Cc1c(-c2ccc(F)cc2)[n+]([O-])c2cc(Cl)c(Cl)cc2[n+]1[O-] | 90% | < 0.2 µg/mL | 7.41 µg/mL (≈ 21.2 µM) | >37.06 |  |
| COc1ccc2c(c1)[n+]([O-])c(C#N)c(-c1ccc(C)cc1)[n+]2[O-] | 90% | 1.56 µg/mL (≈ 5.08 µM) | 3.8 µg/mL (≈ 12.4 µM) | 2.4 |  |
| COc1ccc(-c2c(C#N)[n+]([O-])c3ccccc3[n+]2[O-])cc1 | 90% | < 0.2 µg/mL |  |  |  |
| N#Cc1c(-c2ccc(OC(F)(F)F)cc2)[n+]([O-])c2ccccc2[n+]1[O-] | 90% | < 0.2 µg/mL |  |  |  |
| COc1ccc(-c2c(C#N)[n+]([O-])c3cc(OC)ccc3[n+]2[O-])cc1 | 90% | < 0.2 µg/mL |  |  |  |
| COc1ccc(-c2c(C#N)[n+]([O-])c3cc(Cl)c(Cl)cc3[n+]2[O-])cc1 | 90% | < 0.2 µg/mL |  |  |  |
| COC(=O)c1ccc(-c2c(C#N)[n+]([O-])c3cc(Cl)ccc3[n+]2[O-])cc1 | 90% | 3.13 µg/mL (≈ 8.8 µM) | 20.9 µg/mL (≈ 58.7 µM) | 6.7 |  |
| COC(=O)c1ccc(-c2c(C#N)[n+]([O-])c3cc(C)ccc3[n+]2[O-])cc1 | 90% | 0.39 µg/mL (≈ 1.16 µM) | 3.2 µg/mL (≈ 9.54 µM) | 8.2 |  |
| N#Cc1c(-c2ccc(F)cc2)[n+]([O-])c2ccccc2[n+]1[O-] | 90% | < 0.2 µg/mL | 3.83 µg/mL (≈ 13.6 µM) | >19.16 |  |
| N#Cc1c(-c2ccccc2)[n+]([O-])c2ccc(F)cc2[n+]1[O-] | 90% | < 0.2 µg/mL | 17.6 µg/mL (≈ 62.6 µM) | >88.03 |  |
| N#Cc1c(-c2ccc(F)cc2)[n+]([O-])c2ccc(F)cc2[n+]1[O-] | 90% | < 0.2 µg/mL | 24.9 µg/mL (≈ 83.3 µM) | >124.67 |  |
| N#Cc1c(-c2ccc(Cl)cc2)[n+]([O-])c2ccc(F)cc2[n+]1[O-] | 90% | < 0.2 µg/mL | 47.9 µg/mL (≈ 152 µM) | >239.69 |  |
| Cc1ccc(-c2c(C#N)[n+]([O-])c3cc(C(F)(F)F)ccc3[n+]2[O-])cc1 | 90% | < 0.2 µg/mL | 0.28 µg/mL (≈ 0.811 µM) | >1.42 |  |
| COc1ccc(-c2c(C#N)[n+]([O-])c3cc(F)ccc3[n+]2[O-])cc1 | 90% | < 0.2 µg/mL | 13 µg/mL (≈ 41.9 µM) | 65.15 |  |
| N#Cc1c(-c2ccc(OC(F)(F)F)cc2)[n+]([O-])c2ccc(Cl)cc2[n+]1[O-] | 90% | < 0.2 µg/mL |  |  |  |

| Compound | inhibition at 6.25 µg/mL [1] | MIC [2] | IC50 (Vero; [4]) | Ratio [3] | IC50 (Vero; vero) |
| --- | --- | --- | --- | --- | --- |
| Cc1ccc2c(c1)[n+]([O-])c(C#N)c(-c1ccc(OC(F)(F)F)cc1)[n+]2[O-] | 90% | < 0.2 µg/mL |  |  |  |
| COc1ccc2c(c1)[n+]([O-])c(C#N)c(-c1ccc(OC(F)(F)F)cc1)[n+]2[O-] | 90% | < 0.2 µg/mL |  |  |  |
| Cc1cc2c(cc1C)[n+]([O-])c(-c1ccc(OC(F)(F)F)cc1)c(C#N)[n+]2[O-] | 90% | 0.42 µg/mL (≈ 1.12 µM) |  |  |  |
| N#Cc1c(-c2ccccc2)[n+]([O-])c2ccc(C(F)(F)F)cc2[n+]1[O-] | 90% | < 0.2 µg/mL | 3.78 µg/mL (≈ 11.4 µM) | >18.89 |  |
| N#Cc1c(-c2ccc(F)cc2)[n+]([O-])c2ccc(C(F)(F)F)cc2[n+]1[O-] | 90% | < 0.2 µg/mL | 0.99 µg/mL (≈ 2.83 µM) | >4.94 |  |
| N#Cc1c(-c2ccc(Cl)cc2)[n+]([O-])c2ccc(Cl)cc2[n+]1[O-] | 90% | 0.39 µg/mL (≈ 1.17 µM) |  |  | ND(Insoluble) |
| Cc1cc2c(cc1C)[n+]([O-])c(-c1ccc(Cl)cc1)c(C#N)[n+]2[O-] | 90% | 0.78 µg/mL (≈ 2.39 µM) | > 10 µg/mL | >12.8 |  |
| COc1ccc(-c2c(C#N)[n+]([O-])c3cc(C(F)(F)F)ccc3[n+]2[O-])cc1 | 90% | < 0.2 µg/mL | 0.9 µg/mL (≈ 2.49 µM) | >4.53 |  |
| N#Cc1c(-c2ccccc2)[n+]([O-])c2ccc(Cl)cc2[n+]1[O-] | 90% | 0.39 µg/mL (≈ 1.31 µM) | 0.36 µg/mL (≈ 1.21 µM) | 0.92 |  |
| N#Cc1c(-c2ccc(Cl)cc2)[n+]([O-])c2ccccc2[n+]1[O-] | 90% | 0.39 µg/mL (≈ 1.31 µM) | 0.36 µg/mL (≈ 1.21 µM) | 0.92 |  |
| COc1ccc2c(c1)[n+]([O-])c(C#N)c(-c1ccc(Cl)cc1)[n+]2[O-] | 90% | 0.78 µg/mL (≈ 2.38 µM) | 1 µg/mL (≈ 3.05 µM) | 1.3 |  |
| COc1ccc2c(c1)[n+]([O-])c(C#N)c(-c1ccc(F)cc1)[n+]2[O-] | 90% | < 0.2 µg/mL | 95.1 µg/mL (≈ 306 µM) | >475.55 |  |
| Cc1ccc(-c2c(C#N)[n+]([O-])c3cc(C)ccc3[n+]2[O-])cc1 | 90% | 0.78 µg/mL (≈ 2.68 µM) |  |  | ND(Insoluble) |
| COc1ccc(-c2c(C#N)[n+]([O-])c3cc(Cl)ccc3[n+]2[O-])cc1 | 90% | < 0.2 µg/mL |  |  |  |
| N#Cc1c(-c2ccc(OC(F)(F)F)cc2)[n+]([O-])c2ccc(F)cc2[n+]1[O-] | 90% | < 0.2 µg/mL |  |  |  |
| COC(=O)c1ccc(-c2c(C#N)[n+]([O-])c3cc(F)ccc3[n+]2[O-])cc1 | 90% | < 0.2 µg/mL | 57.5 µg/mL (≈ 169 µM) | >258.67 |  |
| Cc1ccc(-c2c(C#N)[n+]([O-])c3cc(F)ccc3[n+]2[O-])cc1 | 90% | < 0.2 µg/mL | 14.6 µg/mL (≈ 49.6 µM) | >73.19 |  |
| N#Cc1c(-c2ccc(OC(F)(F)F)cc2)[n+]([O-])c2cc(Cl)c(Cl)cc2[n+]1[O-] | 90% | < 0.2 µg/mL |  |  |  |
| N#Cc1c(-c2ccc(Cl)cc2)[n+]([O-])c2ccc(C(F)(F)F)cc2[n+]1[O-] | 90% | < 0.2 µg/mL | 1.34 µg/mL (≈ 3.66 µM) | >6.68 |  |
